Laboratory results as given in article PMC11571207, “Stereorandomized Oncocins with Preserved Ribosome Binding and Antibacterial Activity” (Journal of Medicinal Chemistry, 2024).
Read-outs that look alike come from different tables or passages of the source. No end group written: not given here.

Key:
[1] = test system: P. aeruginosa PA14 4.18 (pmrB); details: for MIC P. aeruginosa PA14 4.18: supplement CSV
[2] = test system: P. aeruginosa PA14 4.13 (phoQ); details: for MIC P. aeruginosa PA14 4.13: supplement CSV
K. pneumoniae OXA-48 = test: microbe, parasite or virus in culture; details: for MIC K. pneumoniae OXA-48: supplement CSV
How it was run: (§1)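 Minimal inhibitory concentrations come from broth microdilution in MH medium, with a top peptide concentration of 64 μg/mL halved serially.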

[3] = test system: P. aeruginosa PA14 2P4 (pmrB); test: microbe, parasite or virus in culture; details: for MIC P. aeruginosa PA14 2P4: supplement CSV
How it was run: as §1

P. aeruginosa ZEM9A = test: microbe, parasite or virus in culture; details: for MIC P. aeruginosa ZEM9A: supplement CSV
How it was run: as §1

P. aeruginosa PA14 = test: microbe, parasite or virus in culture; details: for MIC P. aeruginosa PA14: supplement CSV
How it was run: as §1

E. cloacae = test: microbe, parasite or virus in culture; details: for MIC E. cloacae: supplement CSV
How it was run: as §1

P. aeruginosa ZEM-1A = test: microbe, parasite or virus in culture; details: for MIC P. aeruginosa ZEM-1A: supplement CSV
How it was run: as §1

human red blood cells = test: Hemolysis assay, minimum hemolytic concentration
S. aureus COL (MRSA) = test: microbe, parasite or virus in culture; details: for MIC S. aureus COL (MRSA): supplement CSV
How it was run: (§2)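 Read-out was visible growth after MTT addition, the MIC being the lowest inhibitory peptide concentration. Bacteria grown to log phase in LB were exposed in MH medium to peptide from 64 μg/mL in twofold dilutions for 15-18h at 37°C.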

K. pneumoniae NCTC 418 = test: microbe, parasite or virus in culture; details: for MIC K. pneumoniae NCTC418: supplement CSV
How it was run: as §2

P. aeruginosa PAO1 = test: microbe, parasite or virus in culture; details: for MIC P. aeruginosa PAO1: supplement CSV
How it was run: as §2

A. baumannii ATCC19606 = test: microbe, parasite or virus in culture; details: for MIC A. baumannii ATCC19606: supplement CSV
How it was run: as §2

E. coli W3110 = test: microbe, parasite or virus in culture; details: for MIC E. coli W3110: supplement CSV
How it was run: as §2

[4] = polymyxin B resistant strain, 12.5% MHB pH 7.4, 16–20 h at 37 °C
[5] = polymyxin B resistant strain, full MHB pH 7.4, 16–20 h at 37 °C

VDKPPYLPRPRPPRRIYNR [sr14Nterm-Onc] (VDKPPYLPRPRPPRRIYNR-NH2; also: residues 1-14 stereorandomized (1:1 L/D mixture))
MIC P. aeruginosa PA14 4.18 (pmrB), 12.5% MHB [1, 4]: 32 µg/mL
MIC P. aeruginosa PA14 4.18 (pmrB), full MHB [1, 5]: > 64 µg/mL
MIC P. aeruginosa PA14 4.18 ([1]; 12.5% MH pH 7.4): 32 µg/mL
MIC P. aeruginosa PA14 4.18 ([1]; full MH pH 7.4): >64 µg/mL
MIC P. aeruginosa PA14 4.13 (phoQ), 12.5% MHB [2, 4]: 32 µg/mL
MIC P. aeruginosa PA14 4.13 (phoQ), full MHB [2, 5]: > 64 µg/mL
MIC P. aeruginosa PA14 4.13 ([2]; 12.5% MH pH 7.4): 32 µg/mL
MIC P. aeruginosa PA14 4.13 ([2]; full MH pH 7.4): >64 µg/mL
MIC K. pneumoniae OXA-48, 12.5% MHB (K. pneumoniae OXA-48; carbapenem-resistant, 12.5% MHB pH 7.4, 16–20 h at 37 °C): >64/>64 μg/mL
MIC K. pneumoniae OXA-48, full MHB (K. pneumoniae OXA-48; carbapenem-resistant, full MHB pH 7.4, 16–20 h at 37 °C): >64/>64 μg/mL
MIC K. pneumoniae OXA-48 (K. pneumoniae OXA-48; 12.5% MH pH 7.4): >64 µg/mL
MIC K. pneumoniae OXA-48 (K. pneumoniae OXA-48; full MH pH 7.4): >64 µg/mL
MIC P. aeruginosa PA14 2P4 (pmrB), 12.5% MHB [3, 4]: 16 µg/mL
MIC P. aeruginosa PA14 2P4 (pmrB), full MHB [3, 5]: > 64 µg/mL
MIC P. aeruginosa PA14 2P4 ([3]; 12.5% MH pH 7.4): 16 µg/mL
MIC P. aeruginosa PA14 2P4 ([3]; full MH pH 7.4): >64 µg/mL
MIC P. aeruginosa ZEM9A, 12.5% MHB (P. aeruginosa ZEM9A; clinical isolate, 12.5% MHB pH 7.4, 16–20 h at 37 °C): >64/64 μg/mL
MIC P. aeruginosa ZEM9A, full MHB (P. aeruginosa ZEM9A; clinical isolate, full MHB pH 7.4, 16–20 h at 37 °C): >64/64 μg/mL
MIC P. aeruginosa ZEM9A (P. aeruginosa ZEM9A; 12.5% MH pH 7.4): 64 µg/mL
MIC P. aeruginosa ZEM9A (P. aeruginosa ZEM9A; full MH pH 7.4): >64 µg/mL
MIC P. aeruginosa PA14, 12.5% MHB (P. aeruginosa PA14; 12.5% MHB pH 7.4, 16–20 h at 37 °C, two different duplicate MIC determinations): >64/64 μg/mL
MIC P. aeruginosa PA14, full MHB (P. aeruginosa PA14; full MHB pH 7.4, 16–20 h at 37 °C, two different duplicate MIC determinations): >64/64 μg/mL
MIC P. aeruginosa PA14 (P. aeruginosa PA14; 12.5% MH pH 7.4): 64 µg/mL
MIC P. aeruginosa PA14 (P. aeruginosa PA14; full MH pH 7.4): >64 µg/mL
MIC E. cloacae, 12.5% MHB (E. cloacae; 12.5% MHB pH 7.4, 16–20 h at 37 °C): 8 µg/mL
MIC E. cloacae, full MHB (E. cloacae; full MHB pH 7.4, 16–20 h at 37 °C): > 64 µg/mL
MIC E. cloacae (E. cloacae; 12.5% MH pH 7.4): 8 µg/mL
MIC E. cloacae (E. cloacae; full MH pH 7.4): >64 µg/mL
MIC P. aeruginosa ZEM-1A, 12.5% MHB (P. aeruginosa ZEM-1A; clinical isolate, 12.5% MHB pH 7.4, 16–20 h at 37 °C, cells marked c: single measurement (in duplicates)): >64/>64 ^c μg/mL
MIC P. aeruginosa ZEM-1A, full MHB (P. aeruginosa ZEM-1A; clinical isolate, full MHB pH 7.4, 16–20 h at 37 °C, cells marked c: single measurement (in duplicates)): >64/>64 ^c μg/mL
MIC P. aeruginosa ZEM-1A (P. aeruginosa ZEM-1A; 12.5% MH pH 7.4): >64 µg/mL
MIC P. aeruginosa ZEM-1A (P. aeruginosa ZEM-1A; full MH pH 7.4): >64 µg/mL
Haemolysis on hRBC, MHC (human red blood cells; 2.5% human red blood cells (final) in 10 mM phosphate, 150 mM NaCl, pH 7.4, 25 °C, 4 h, visual inspection): >1000 µg/mL
MHC human red blood cells (human red blood cells; supplement CSV): >1000 µg/mL
MIC S. aureus, 12.5% MHB (S. aureus COL (MRSA); S. aureus COL (MRSA), 12.5% Müller–Hinton medium, 16–20 h at 37 °C): >64 / >64 μg/mL
MIC S. aureus, Full MHB (S. aureus COL (MRSA); S. aureus COL (MRSA), full Müller–Hinton medium, 16–20 h at 37 °C): >64 / >64 μg/mL
MIC S. aureus COL (MRSA) (S. aureus COL (MRSA); 12.5% MH pH 7.4): >64 µg/mL
MIC S. aureus COL (MRSA) (S. aureus COL (MRSA); full MH pH 7.4): >64 µg/mL
MIC K. pneumoniae, 12.5% MHB (K. pneumoniae NCTC 418; K. pneumoniae NCTC 418, 12.5% Müller–Hinton medium, 16–20 h at 37 °C): > 16 µg/mL
MIC K. pneumoniae, Full MHB (K. pneumoniae NCTC 418; K. pneumoniae NCTC 418, full Müller–Hinton medium, 16–20 h at 37 °C): > 64 µg/mL
MIC K. pneumoniae NCTC418 (K. pneumoniae NCTC 418; 12.5% MH pH 7.4): >16 µg/mL
MIC K. pneumoniae NCTC418 (K. pneumoniae NCTC 418; full MH pH 7.4): >64 µg/mL
MIC P. aeruginosa, 12.5% MHB (P. aeruginosa PAO1; P. aeruginosa PAO1, 12.5% Müller–Hinton medium, 16–20 h at 37 °C): > 16 µg/mL
MIC P. aeruginosa, Full MHB (P. aeruginosa PAO1; P. aeruginosa PAO1, full Müller–Hinton medium, 16–20 h at 37 °C): > 64 µg/mL
MIC P. aeruginosa PAO1 (P. aeruginosa PAO1; 12.5% MH pH 7.4): >16 µg/mL
MIC P. aeruginosa PAO1 (P. aeruginosa PAO1; full MH pH 7.4): >64 µg/mL
MIC A. baumannii, 12.5% MHB (A. baumannii ATCC19606; A. baumannii ATCC19606, 12.5% Müller–Hinton medium, 16–20 h at 37 °C): 16 µg/mL
MIC A. baumannii, Full MHB (A. baumannii ATCC19606; A. baumannii ATCC19606, full Müller–Hinton medium, 16–20 h at 37 °C): 64 µg/mL
MIC A. baumannii ATCC19606 (A. baumannii ATCC19606; 12.5% MH pH 7.4): 16 µg/mL
MIC A. baumannii ATCC19606 (A. baumannii ATCC19606; full MH pH 7.4): 64 µg/mL
MIC E. coli, 12.5% MHB (E. coli W3110; E. coli W3110, 12.5% Müller–Hinton medium, 16–20 h at 37 °C, broth microdilution): 4 µg/mL
MIC E. coli, Full MHB (E. coli W3110; E. coli W3110, full Müller–Hinton medium, 16–20 h at 37 °C, broth microdilution): 64 µg/mL
MIC E. coli W3110 (E. coli W3110; 12.5% MH pH 7.4): 4 µg/mL
MIC E. coli W3110 (E. coli W3110; full MH pH 7.4): 64 µg/mL
